Tested on: B16 melanoma cells
Assay: costimulatory/co-inhibitory molecule expression on B16 melanoma cells (flow cytometry)
Type: cell-based
Design: key to Upregulated (√)/No change (—) Costimulatory MHC CI / Upregulated (√)/No change (—) Costimulatory CD40 / Upregulated (√)/No change (—) Costimulatory CD80 / Upregulated (√)/No change (—) Costimulatory CD86 / Upregulated (√)/No change (—) Coinhibitory TIGIT / Upregulated (√)/No change (—) Coinhibitory PD-L1 / Upregulated (√)/No change (—) Coinhibitory PD-1: upregulated (√); no change (—)
Settings: 24 hours, C90, C100, protasan 40 μg/ml, CpG 4 μg/ml, Etoposide 200 μM, DMXAA 10 μg/ml; for Fold increase in MFI Coinhibitory PD-1 / Fold increase in MFI Coinhibitory PD-L1 / Fold increase in MFI Coinhibitory TIGIT / Fold increase in MFI Costimulatory CD40 / Fold increase in MFI Costimulatory CD80 / Fold increase in MFI Costimulatory CD86 / Fold increase in MFI Costimulatory MHC CI: compared to unstimulated control
Description: Flow cytometric analysis of costimulatory molecule expression on B16-F10 cells: 2×10^5 B16 melanoma cells were stimulated with media or 40 μg/ml, C90, C100 or protasan for 24 hours in 24 well plates. Cells were removed from wells using ice cold PBS-EDTA, transferred to labelled FACS tubes and washed with 2 mL of PBS. Cells were stained with BV510 viability dye (1 in 1000 dilition) for 15 minutes at room temperature. Cells were then washed in PBS, and stained for cell surface markers for 30 minutes at room temperature. Cells were then washed in PBS, resuspended in […] of FACs buffer, with samples acquired via BD FACSCanto and the data analysed using Flowjo™ software (Treestar, Oregon).

SMILES	Upregulated (√)/No change (—) Coinhibitory PD-1	Upregulated (√)/No change (—) Coinhibitory PD-L1	Upregulated (√)/No change (—) Coinhibitory TIGIT	Upregulated (√)/No change (—) Costimulatory CD40	Upregulated (√)/No change (—) Costimulatory CD80	Upregulated (√)/No change (—) Costimulatory CD86	Upregulated (√)/No change (—) Costimulatory MHC CI	Fold increase in MFI Coinhibitory PD-1	Fold increase in MFI Coinhibitory PD-L1	Fold increase in MFI Coinhibitory TIGIT	Fold increase in MFI Costimulatory CD40	Fold increase in MFI Costimulatory CD80	Fold increase in MFI Costimulatory CD86	Fold increase in MFI Costimulatory MHC CI
Cc1ccc2c(=O)c3cccc(CC(=O)O)c3oc2c1C [DMXAA]	√	√	√	—	—	—	√	1.2 fold	1.2 fold	1.3 fold	1.1 fold	1.0 fold	1.1 fold	1.2 fold
COc1cc([C@@H]2c3cc4c(cc3[C@@H](O[C@@H]3O[C@@H]5CO[C@@H](C)O[C@H]5[C@H](O)[C@H]3O)[C@H]3COC(=O)[C@H]23)OCO4)cc(OC)c1O [Etoposide]	—	√	√ √	√ √	√ √	√ √	√ √ √	1.0 fold	1.6 fold	1.7 fold	1.9 fold	2.2 fold	1.9 fold	3.0 fold
